Reference: patent US20190010167A1, “INHIBITORS OF THE MENIN-MLL INTERACTION” (Vitae Pharmaceuticals, Inc., priority 2015, published 2019)

How the values were obtained:
[1] = molecular target: T1, menin/MLL (Gal4-Menin and MLL1-46-VP16) in HEK293 cells (Homo sapiens, UniProt O00255); test: Mammalian cellular two-hybrid assay in HEK293 cells (Assay 2, cell assay); type: cell-based; conditions: Gal4-Menin/MLL1-46-VP16 two-hybrid, NanoLuc luciferase reporter, 16-18 h
T1 construct: expressed in transfected cells; host or cells: HEK293 (ATCC)
Procedure: Potencies of inhibitor compounds against menin/MLL were tested in a mammalian cellular two-hybrid assay system. HEK293 cells (American Type Culture Collection (ATCC); Manassas, Va.) were co-transfected with three plasmids: one encoding Gal4-Menin (200 ng per 10^6 cells), another encoding MLL1-46-VP16 (100 ng per 10^6 cells), and a reporter plasmid pNL3.3-4×UAS (500 ng per 10^6 cells) encoding secreted NanoLuc® luciferase (Promega) with the upstream 4×UAS repeats for Gal4 binding. Transfection was performed in Opti-MEM® media using Lipofectamine® LTX with Plus™ Reagent (ThermoFisher Scientific) according to manufacturer's protocol. Cells were incubated with transfection reagents at 37° C. 5% CO2 for 5-6 h, harvested by trypsinization and centrifugation at 300×g for 5 min and resuspended in Gibco® DMEM media (phenol red-free, no antibiotics) containing 10% delipidated fetal bovine serum (FBS) (ThermoFisher Scientific). Concentration of cells in the media was adjusted to 3.5×10^5 cells/ml, and 100 μl of the cell suspension was dispensed into each well of 96-well Costar™ black clear bottom cell culture plates (Fisher Scientific). Tested compounds were added as 100 μL of 2× solutions in the media. Final concentration of DMSO was 0.1% in all wells. The cells were incubated with tested compounds at 37° C. 5% CO2 for 16-18 h. At the end of the incubation, 40 μL of the conditioned media from each well was transferred into each well of 96-well Costar™ black half-area plates (Fisher Scientific), to which 40 μl of 2× reconstituted NanoGlo® luciferase assay reagent (Promega) was added and thoroughly mixed on a microshaker for 2-3 min. Remaining media in the culture plates was removed by emptying the wells and blotting the plates on filter paper. The cells were lysed with 1× CellTiter-Glo® Luminescent Cell Viability Assay reagent (Promega) for assessing toxicity of the tested compounds. Both, Nano-Glo® and CellTiter-Glo® luminescence intensities were measured on EnVision® multilabel plate reader (PerkinElmer). Percent inhibition values were calculated based on Nano-Glo® luciferase activity observed with the tested compounds vs. DMSO control and commercially available menin inhibitor MI-2-2 (4-(4-(5,5-Dimethyl-4,5-dihydrothiazol-2-yl)piperazin-1-yl)-6-(2,2,2-trifluoroethyl)thieno[2,3-d]pyrimidine) (EMD Millipore, Cat. No. 444825) incubated with cells at 5 μM. These percent inhibition values were regressed against compound concentrations in the assay using non-linear 4-parameter logit curve fitting (XLFit, IDBS). Half maximal inhibitory concentrations (IC50) were calculated as the parameters of the fit corresponding to the inflection points on semi-logarithmic dose-response curves.

[2] = molecular target: T2, wild-type menin / MLL-AF9 fusion protein (Homo sapiens, UniProt O00255); test: AlphaLISA menin/MLL binding assay, wild-type menin (Assay 1); conditions: biotinylated wild-type menin 5 nM, MLL-AF9-FLAG lysate
T2 construct: made in house; host or cells: E. coli (menin); HEK293 cleared lysate (MLL-AF9-FLAG)
T2 sequence (O00255 1-610): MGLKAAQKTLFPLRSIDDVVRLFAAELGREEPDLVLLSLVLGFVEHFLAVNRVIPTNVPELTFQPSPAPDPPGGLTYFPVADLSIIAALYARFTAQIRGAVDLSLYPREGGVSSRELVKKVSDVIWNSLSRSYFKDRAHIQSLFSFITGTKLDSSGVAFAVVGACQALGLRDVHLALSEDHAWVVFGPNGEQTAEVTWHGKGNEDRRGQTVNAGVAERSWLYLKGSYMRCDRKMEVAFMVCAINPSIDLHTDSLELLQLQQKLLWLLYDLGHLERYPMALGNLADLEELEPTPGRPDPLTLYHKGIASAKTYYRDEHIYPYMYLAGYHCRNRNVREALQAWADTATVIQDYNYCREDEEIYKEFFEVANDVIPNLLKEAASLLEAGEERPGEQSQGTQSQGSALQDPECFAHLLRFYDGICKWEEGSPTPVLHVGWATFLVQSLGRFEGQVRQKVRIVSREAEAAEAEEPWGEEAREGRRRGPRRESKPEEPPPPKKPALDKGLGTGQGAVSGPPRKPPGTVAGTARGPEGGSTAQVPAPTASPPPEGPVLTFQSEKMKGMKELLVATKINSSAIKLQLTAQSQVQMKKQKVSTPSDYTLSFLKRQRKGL
Procedure, shortened: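 Biotinylated wild-type or mutated menin (5 nM, E. coli-expressed) was preincubated 30 min at RT with compound and HEK293 lysate containing MLL1-1,396–AF9 1-92–FLAG. Buffer was 50 mM Tris-HCl pH 7.4, 5% DMSO, 50 mM NaCl, 0.01% BSA, 1 mM DTT. Anti-FLAG acceptor and streptavidin donor beads (10 μg/mL each) were then added for 60 min. IC50 came from a four-parameter fit of the Alpha signal inhibition.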

T1 sequence (P04386 1-147 partner limits assumed, species assumed, one chain of several): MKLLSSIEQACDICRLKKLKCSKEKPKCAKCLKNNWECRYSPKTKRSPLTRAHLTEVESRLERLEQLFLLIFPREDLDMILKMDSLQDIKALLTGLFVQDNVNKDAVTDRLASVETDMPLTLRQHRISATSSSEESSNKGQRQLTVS

SMILES	IC50 [1] [nM]	IC50 [2] [nM]
CC(C)(C)CN1CC2(CCN(c3ncnc4sc(CC(F)(F)F)cc34)CC2)C1 [Example 18, 4-(2-neopentyl-2,7-diazaspiro[3.5]nonan-7-yl)-6-(2,2,2-trifluoroethyl)thieno[2,3-d]pyrimidine]	≥ 1000	100 to 1000
N#Cc1ccc2c(CN3CC4(CCN(c5ncnc6sc(CC(F)(F)F)cc56)CC4)C3)c[nH]c2c1 [Example 20, 3-((7-(6-(2,2,2-trifluoroethyl)thieno[2,3-d]pyrimidin-4-yl)-2,7-diazaspiro[3.5]nonan-2-yl)methyl)-1H-indole-6-carbonitrile]	≥ 1000	100 to 1000
CCC(C)CN1CC2(CCN(c3ncnc4sc(CC(F)(F)F)cc34)CC2)C1 (stereo not shown) [Example 22, 4-(2-(2-methylbutyl)-2,7-diazaspiro[3.5]nonan-7-yl)-6-(2,2,2-trifluoroethyl)thieno[2,3-d]pyrimidine]	≥ 1000	100 to 1000
FC(F)(F)Cc1cc2c(N3CCC4(CCN(Cc5ccccc5)C4)CC3)ncnc2s1 [Example 23, 4-(2-benzyl-2,8-diazaspiro[4.5]decan-8-yl)-6-(2,2,2-trifluoroethyl)thieno[2,3-d]pyrimidine]	≥ 1000	100 to 1000
CC(C)CN1CCC2(CCN(c3ncnc4sc(CC(F)(F)F)cc34)CC2)C1 [Example 24, 4-(2-isobutyl-2,8-diazaspiro[4.5]decan-8-yl)-6-(2,2,2-trifluoroethyl)thieno[2,3-d]pyrimidine]	≥ 1000	100 to 1000
Cc1c(CN2CCC3(CCN(c4ncnc5sc(CC(F)(F)F)cc45)CC3)C2)ccc2[nH]c(C#N)cc12 [Example 26, 4-methyl-5-((8-(6-(2,2,2-trifluoroethyl)thieno[2,3-d]pyrimidin-4-yl)-2,8-diazaspiro[4.5]decan-2-yl)methyl)-1H-indole-2-carbonitrile]	100 to 1000	< 100
FC(F)(F)Cc1cc2c(N3CCC4(CCN(Cc5ccc6[nH]ccc6c5)C4)C3)ncnc2s1 (stereo not shown) [Example 28, 4-(7-((1H-indol-5-yl)methyl)-2,7-diazaspiro[4.4]nonan-2-yl)-6-(2,2,2-trifluoroethyl)thieno[2,3-d]pyrimidine]	100 to 1000	< 100
FC(F)(F)Cc1cc2c(N3CCC4(CCN(Cc5ccc6cc[nH]c6c5)C4)C3)ncnc2s1 (stereo not shown) [Example 29, 4-(7-((1H-indol-6-yl)methyl)-2,7-diazaspiro[4.4]nonan-2-yl)-6-(2,2,2-trifluoroethyl)thieno[2,3-d]pyrimidine]	100 to 1000	< 100
N#Cc1ccc(CN2CCC3(CCN(c4ncnc5sc(CC(F)(F)F)cc45)C3)C2)cc1 (stereo not shown) [Example 33, 4-((7-(6-(2,2,2-trifluoroethyl)thieno[2,3-d]pyrimidin-4-yl)-2,7-diazaspiro[4.4]nonan-2-yl)methyl)benzonitrile]	100 to 1000	< 100
CC(=O)Nc1ccc(CN2CCC3(CCN(c4ncnc5sc(CC(F)(F)F)cc45)C3)C2)cc1 (stereo not shown) [Example 34, N-(4-((7-(6-(2,2,2-trifluoroethyl)thieno[2,3-d]pyrimidin-4-yl)-2,7-diazaspiro[4.4]nonan-2-yl)methyl)phenyl)acetamide]	100 to 1000	< 100
CS(=O)(=O)Nc1ccc(CN2CCC3(CCN(c4ncnc5sc(CC(F)(F)F)cc45)C3)C2)cc1 (stereo not shown) [Example 38, N-(4-((7-(6-(2,2,2-trifluoroethyl)thieno[2,3-d]pyrimidin-4-yl)-2,7-diazaspiro[4.4]nonan-2-yl)methyl)phenyl)methanesulfonamide]	100 to 1000	< 100
O=c1[nH]c2ccc(CN3CCC4(CCN(c5ncnc6sc(CC(F)(F)F)cc56)C4)C3)cc2[nH]1 (stereo not shown) [Example 39, 5-((7-(6-(2,2,2-trifluoroethyl)thieno[2,3-d]pyrimidin-4-yl)-2,7-diazaspiro[4.4]nonan-2-yl)methyl)-1H-benzo[d]imidazol-2(3H)-one]	< 100	< 100
O=c1[nH]c2ccc(CN3CCC4(CCN(c5ncnc6sc(CC(F)(F)F)cc56)C4)C3)cc2o1 (stereo not shown) [Example 40, 6-((7-(6-(2,2,2-trifluoroethyl)thieno[2,3-d]pyrimidin-4-yl)-2,7-diazaspiro[4.4]nonan-2-yl)methyl)benzo[d]oxazol-2(3H)-one]	100 to 1000	< 100
Cn1c(=O)[nH]c2cc(CN3CCC4(CCN(c5ncnc6sc(CC(F)(F)F)cc56)C4)C3)ccc21 (stereo not shown) [Example 41, 1-methyl-5-((7-(6-(2,2,2-trifluoroethyl)thieno[2,3-d]pyrimidin-4-yl)-2,7-diazaspiro[4.4]nonan-2-yl)methyl)-1H-benzoldlimidazol-2(3H)-one]	< 100	< 100
CC(=O)Nc1ccc(CN2CCC3(CCN(c4ncnc5sc(CC(F)(F)F)cc45)C3)C2)c(C)c1 (stereo not shown) [Example 42, N-(3-methyl-4-((7-(6-(2,2,2-trifluoroethyl)thieno[2,3-d]pyrimidin-4-yl)-2,7-diazaspiro[4.4]nonan-2-yl)methyl)phenyl)acetamide]	100 to 1000	< 100
FC(F)(F)Cc1cc2c(N3CCC4(CCN(Cc5ccccc5)C4)C3)ncnc2s1 (stereo not shown) [Example 43, 4-(7-benzyl-2,7-diazaspiro[4.4]nonan-2-yl)-6-(2,2,2-trifluoroethyl)thieno[2,3-d]pyrimidine]	100 to 1000	< 100
CC(=O)Nc1ccc(CN2CCC3(CCN(c4ncnc5sc(CC(F)(F)F)cc45)C3)C2)c(Cl)c1 (stereo not shown) [Example 44, N-(3-chloro-4-((7-(6-(2,2,2-trifluoroethyl)thieno[2,3-d]pyrimidin-4-yl)-2,7-diazaspiro[4.4]nonan-2-yl)methyl)phenyl)acetamide]	100 to 1000	< 100
CC(=O)Nc1ccc(CN2CCC3(CCN(c4ncnc5sc(CC(F)(F)F)cc45)C3)C2)c(F)c1 (stereo not shown) [Example 45, N-(3-fluoro-4-((7-(6-(2,2,2-trifluoroethyl)thieno[2,3-d]pyrimidin-4-yl)-2,7-diazaspiro[4.4]nonan-2-yl)methyl)phenyl)acetamide]	100 to 1000	< 100
COC(=O)N[C@H]1CC[C@H](CN2CCC3(CCN(c4ncnc5sc(CC(F)(F)F)cc45)C3)C2)CC1 (stereo partly shown) [Example 46, Methyl ((1r,4r)-4-((7-(6-(2,2,2-trifluoroethyl)thieno[2,3-d]pyrimidin-4-yl)-2,7-diazaspiro[4.4]nonan-2-yl)methyl)cyclohexyl)carbamate]	100 to 1000	< 100
CS(=O)(=O)N[C@H]1CC[C@H](CN2CCC3(CCN(c4ncnc5sc(CC(F)(F)F)cc45)C3)C2)CC1 (stereo partly shown) [Example 48, N-((1r,4r)-4-((7-(6-(2,2,2-trifluoroethyl)thieno[2,3-d]pyrimidin-4-yl)-2,7-diazaspiro[4.4]nonan-2-yl)methyl)cyclohexyl)methanesulfonamide]	100 to 1000	< 100
